In patent publication US8242166B2, “C(10) ethyl ester and C(10) cyclopropyl ester substituted taxanes” (Florida State University Research Foundation, Inc., priority 2008, dated 2012):
Where two headings read alike, the source gives them in different places.

Legend:
HCT116 = assay: MTT cytotoxicity (IC50), HCT116; type: cell-based; conditions: Homo sapiens, HCT-116, 72 h, read-out: IN Vitro IC50 (nm) HCT116
Procedure: (§1) All cell lines were maintained in RPMI-1640 tissue culture medium (TCM, supplemented with antibiotics and 10% fetal bovine serum) and cultured at 37° C. in humidified air containing 5% CO2. To assess the antiproliferative effects of the test compounds, 172 μL of tumor cell suspension (1.45×10^4 cells/ml) were added to each well of a 96-well plate and incubated for 24 h at 37° C. in 5% CO2 in air to allow cells to adhere. Seven 2-fold drug dilutions in TCM/DMSO were performed in triplicate in separate 96-well plates and 28 μL was transferred to the wells containing tumor cells (200 μL final volume/0.1% DMSO). Plates were incubated for 72 h and cell viability was determined by adding 50 μL of warm TCM containing 5 mg/mL MTT (3-[4,5-dimethylthiazol-2-yl]-2,5-diphenyltetrazolium bromide) to each well and incubating for 1 h at 37° C. Plates were processed and the absorbances of the resulting solutions were measured by a plate reader at 570 nm. […] (GraphPad Prism version 4.00 for Windows). Studies were conducted by Taxolog, Inc., Tallahassee, Fla.

PANC-1 = assay: MTT cytotoxicity (IC50), PANC-1; type: cell-based; conditions: Homo sapiens, 72 h, read-out: IN Vitro IC50 (nm) Panc
Procedure: as §1, with “Compound 17932 was tested in four of these cell lines, while the remaining compounds were tested in all of these cell lines. All” for “All”

DLD-1 = assay: MTT cytotoxicity (IC50), DLD-1; type: cell-based; conditions: Homo sapiens
Procedure: as §1, with “Compound 17932 was tested in four of these cell lines, while the remaining compounds were tested in all of these cell lines. All” for “All”

HT29 = assay: MTT cytotoxicity (IC50), HT29; type: cell-based; conditions: Homo sapiens, HT-29, 72 h, read-out: IN Vitro IC50 (nm) HT29
Procedure: as §1, with “Compound 17932 was tested in four of these cell lines, while the remaining compounds were tested in all of these cell lines. All” for “All”

[1] = system: HT29 human tumor xenografts; assay: HT29 xenograft study e139 (Example 23); type: in vivo, nude mice
786-0 = assay: MTT cytotoxicity (IC50), 786-0; type: cell-based; conditions: Homo sapiens
Procedure: as §1, with “Compound 17932 was tested in four of these cell lines, while the remaining compounds were tested in all of these cell lines. All” for “All”

A375 = assay: MTT cytotoxicity (IC50), A375; type: cell-based; conditions: Homo sapiens, A-375
Procedure: as §1, with “Compound 17932 was tested in four of these cell lines, while the remaining compounds were tested in all of these cell lines. All” for “All”

A549 = assay: MTT cytotoxicity (IC50), A549; type: cell-based; conditions: Homo sapiens, 72 h, read-out: IN Vitro IC50 (nm) A549
Procedure: as §1, with “Compound 17932 was tested in four of these cell lines, while the remaining compounds were tested in all of these cell lines. All” for “All”

TK-10 = assay: MTT cytotoxicity (IC50), TK-10; type: cell-based; conditions: Homo sapiens, 72 h, read-out: IN Vitro IC50 (nm) TK10
Procedure: as §1, with “Compound 17932 was tested in four of these cell lines, while the remaining compounds were tested in all of these cell lines. All” for “All”

MALME-3 = assay: MTT cytotoxicity (IC50), MALME-3; type: cell-based; conditions: Homo sapiens, 72 h, read-out: IN Vitro IC50 (nm) Malme3
Procedure: as §1, with “Compound 17932 was tested in four of these cell lines, while the remaining compounds were tested in all of these cell lines. All” for “All”

OVCAR4 = assay: MTT cytotoxicity (IC50), OVCAR4; type: cell-based; conditions: Homo sapiens, OVCAR-4, 72 h, read-out: IN Vitro IC50 (nm) OVCAR4
Procedure: as §1, with “Compound 17932 was tested in four of these cell lines, while the remaining compounds were tested in all of these cell lines. All” for “All”

HOP-18 = assay: MTT cytotoxicity (IC50), HOP-18; type: cell-based; conditions: Homo sapiens, 72 h, read-out: IN Vitro IC50 (nm) HOP18
Procedure: as §1, with “Compound 17932 was tested in four of these cell lines, while the remaining compounds were tested in all of these cell lines. All” for “All”

SK-MEL-28 = assay: MTT cytotoxicity (IC50), SK-MEL-28; type: cell-based; conditions: Homo sapiens, 72 h, read-out: IN Vitro IC50 (nm) ske-mel28
Procedure: as §1, with “Compound 17932 was tested in four of these cell lines, while the remaining compounds were tested in all of these cell lines. All” for “All”

SNB-19 = assay: MTT cytotoxicity (IC50), SNB-19; type: cell-based; conditions: Homo sapiens, 72 h, read-out: IN Vitro IC50 (nm) SNB19
Procedure: as §1, with “Compound 17932 was tested in four of these cell lines, while the remaining compounds were tested in all of these cell lines. All” for “All”

[2] = system: human HT29 colon carcinoma xenografts
[3] = MTT, 72 h, read-out: IN Vitro IC50 (nm) DLD1
[4] = Resistance MDR1+, read-out: DLD1 Colon (Table 4, quantity not named; IC50 values as Table 2)

CC(=O)O[C@@]12CO[C@@H]1C[C@H](O)[C@@]1(C)C(=O)[C@H](OC(=O)C3CC3)C3=C(C)[C@@H](OC(=O)[C@H](O)[C@@H](NC(=O)OC4CCCC4)c4cccs4)C[C@@](O)([C@@H](OC(=O)c4ccccc4)C12)C3(C)C (stereo partly shown) [Compound 17932]
IC50 (HCT116): 0.6 nM
IC50 (PANC-1): 1.2 nM
IC50 (DLD-1; [3]): 1.4 nM
IC50 (DLD-1; [4]): 1.4 nM
IC50 (HT29): 0.9 nM
MTV (Day 61) ([1]; 20 mg/kg i.v. q4d×4): 78 mm^3
PR responses ([1]; 20 mg/kg i.v. q4d×4, six mice): 5
Day 51 mm^3 (tumor size) ([1]; 20 mg/kg iv q4d × 4): 99.7 mm^3
Day 54 mm^3 (tumor size) ([1]; 20 mg/kg iv q4d × 4): 109.4 mm^3
Max. BW Loss %; Day ([1]; 20 mg/kg iv q4d × 4): −19.3%; Day 16
Number of Death NTR ([1]; 20 mg/kg iv q4d × 4, N=6): 0
Number of Death TR ([1]; 20 mg/kg iv q4d × 4, N=6): 0

CC(=O)O[C@H]1C(=O)[C@@]2(C)[C@H]([C@H](OC(=O)c3ccccc3)[C@]3(O)C[C@H](OC(=O)[C@H](O)[C@@H](NC(=O)c4ccccc4)c4ccccc4)C(C)=C1C3(C)C)[C@]1(OC(C)=O)CO[C@@H]1C[C@@H]2O [Paclitaxel, paclitaxel, reference compound]
IC50 (PANC-1): 4.1 nM
IC50 (DLD-1; [3]): > 10 nM
IC50 (DLD-1; [4]): 41 nM
IC50 (HT29): 2.8 nM
IC50 (786-0; MTT, 72 h, read-out: IN Vitro IC50 (nm) 786-0): > 10 nM
IC50 (786-0; Resistance MDR1+, read-out: 786-0 Renal (Table 4, quantity not named; IC50 values as Table 2)): > 10 nM
IC50 (A375; MTT, 72 h, read-out: IN Vitro IC50 (nm) A375): 8 nM
IC50 (A375; Resistance MRP9, read-out: A375 Melanoma (Table 4, quantity not named; IC50 values as Table 2)): 8 nM
IC50 (A549): 3.8 nM
IC50 (TK-10): 4.8 nM
IC50 (MALME-3): 6.5 nM
IC50 (OVCAR4): 2.9 nM
IC50 (HOP-18): 7.2 nM
IC50 (SK-MEL-28): 5.4 nM
IC50 (SNB-19): 6.1 nM
antitumor activity ([2]; 30 mg/kg q4d×4): relatively weak activity
D 38 TTE ([2]; mouse, in vivo): 27.5 ± 1.9 (6) days
Number of Death NTR ([2]; mouse, in vivo): 0
Number of Death TR ([2]; mouse, in vivo): 0
